Where two headings read alike, the source gives them in different places.
Columns and labels:
HL-60 cells = test: Differential Nuclear Staining (DNS) cytotoxicity assay; type: cell-based
Description: (§1) In this study, 19 human cell lines were utilized: seven breast human cancer; MDA-MB-468, MCF-7, T47D, HCC1419, HCC70, MDA-MB-231 (triple negative) and its lung metastatic (LM) derivative MDA-MB-231 LM2; four human leukemia/lymphoma cells, HL-60, Ramos, Jurkat and CEM, three human ovarian cancer, Ovcar 8, Ovcar 5 and Ovcar 3, one lung cancer, one melanoma and one pancreatic cell line, A549, A375, Panc-1 respectively. Furthermore, for selectivity/comparative purposes, the cell lines from the non-cancerous origin, MCF-10A, HS-27 were also included. The culture media used for MDA-MB-231, MDA-MB-231 LM2, MDA-MB-468, MCF-7, A549, A375, Panc-1, and HS-27 was DMEM (Hyclone, Logan UT), whereas for T47D, HCC-1419, HCC-70, HL-60, Ramos, Jurkat, CEM, Ovcar 8 and Ovcar 5 was RPMI-1640 (Hyclone, Logan UT). Consistently, both DMEM and RPMI culture media was supplemented with 10% heat-inactivated fetal bovine serum (FBS: Hyclone), 100 U/ml penicillin and 100 μg/ml streptomycin (Thermo Fisher Scientific Inc., Rockford, IL). The MCF-10A cells were grown in DMEM/F12 supplemented with 10% FBS, 10 μg/ml recombinant human insulin (Sigma), 0.5 μg/ml hydrocortisone (Sigma), 20 ng/ml epidermal growth factor, 2.5 mM L-glutamine, 100 U/ml penicillin, and 100 μg/ml streptomycin. Also, a slight modification of the culture media to the HL-60 and Ovcar 3 cell lines was that 20% of FBS was added to the media (ATCC, Manassas, VA, USA). In addition, Ovcar 3 cells required 10 μg/ml recombinant human insulin (Sigma). The adherent cells, growing in the logarithmic growth phase at a 60-75% confluence, were detached by utilizing a HyQtase enzyme (Thermo Fisher Scientific Inc.), counted and seeded in 96-well plates at 10,000 cells density in 100 μL of culture medium per well. Cells growing in suspension were processed similarly as described above except for the addition of HyQtase. Typically, the incubation conditions of all the cells were at 37° C. in a 5% CO2 humidified atmosphere.
(§2) To analyze the potential cytotoxic activity of PND, the Differential Nuclear Staining (DNS) assay, which was validated for high-throughput screening (HTS) using live-cell bio-imaging was utilized. For this assay, cells were seeded at 10,000 cells/well density in a 96-well plate in 100 μl of culture media, incubated overnight, and treated with a gradient of PND concentrations for 72 h. Two hours before imaging, two fluorescent nucleic acid intercalators were added to each well, Hoechst 33342 and propidium iodide (PI; Invitrogen); at a final concentration of 1 μg/ml each. Due to its high permeability, Hoechst stains all of the cells (total dead and alive), whereas PI only stains dead or dying cells. Montages of 2 by 2 images were captured directly from each individual well of the culture plates by using a multi-well plate reader IN Cell 2000 analyzer, an HTS and high-content analysis (HCA) system (GE Healthcare Life Sciences, Pittsburgh, PA). The following controls were included in every single plate: PBS as solvent/vehicle control, hydrogen peroxide as a positive control for cytotoxicity, and untreated cells to determine the background of toxicity due to cell manipulation and intrinsic factors usually associated with the culture protocol. Each experimental data point, as well as controls, were assessed in triplicates. Cytotoxic concentration 50% (CC50) values were calculated based on a linear interpolation equation. CC50 is defined as the PND concentration required to disrupt the plasma membrane integrity of 50% of the cell population, as compared with solvent-treated cells.
(§3) The selective cytotoxicity index (SCI) denotes the capability of a given experimental compound to kill cancer cells more efficiently while inflicting minimal toxicity to non-cancerous origin cells. Thus, the SCI for PND was calculated as follow: SCI=CC50 of non-cancerous cells/CC50 of cancer cells.

[1] = as above; type: cell-based; details: human; for selectivity ratio at 72 h: read-out: selective cytotoxicity index (SCI)
Description: as §1, §2, §3

MDA-MB-231 cells = test: as above; type: cell-based
Description: as §1, §2, §3

[2] = tested on: malignancy that was metastatic or unresectable; test: Open-label dose-escalating study of oral PND in terminally-ill human cancer patients
Description: An open-label, dose-escalating study was conducted to assess the longevity and safety of oral pyronaridine tetraphosphate (PND) in five terminally-ill human patients with selected cancers. […] Exclusion criteria included active clinically significant infection, uncontrolled intercurrent illness, neutropenia, and pregnancy.
The PND was obtained from Mangalam Drugs and Organics, Ltd, and the powered PND was encapsulated in size “00” gelatin capsules for oral administration.
Patient were instructed to escalate his or her dose if there was no unacceptable toxicity. […] Study Arm 2 started with a daily dose of 200 mg for 2 weeks, then 400 mg for 2 weeks, then 600 mg onwards. Due to ethical concerns of treating terminally-ill patients, there was no placebo group.
The primary outcomes assessed was the difference between the patient's expected survival length estimated at the time of study entry (estimated at 2-4 weeks for each patient) and his or her actual survival length. The secondary outcomes were malignancy-associated symptom relief, anti-tumor activity, safety, and tolerability of PND.

**Q.** What does the source list for `COC1=CC=C2Nc3cc(Cl)ccc3C(N=C3C=C(CN4CCCC4)C(=O)C(CN4CCCC4)=C3)=C2N1` [PND, 4-[(7-chloro-2-methoxy-1,5-dihydrobenzo[b][1,5]naphthyridin-10-yl)imino]-2,6-bis(pyrrolidin-1-ylmethyl)cyclohexa-2,5-dien-1-one]?
**A.** selective cytotoxicity index (SCI) (HL-60 cells): > 3; CC50 (HL-60 cells; Homo sapiens, 72 h, DNS assay): 1.9 µM; selectivity ratio at 72 h ([1]; HL-60): 3.5; selectivity ratio at 72 h ([1]; MCF-7 cells against non-cancerous MCF-10A cells, vs MCF-10A): 4.13; CC50 at 72 h ([1]; MCF-10A non-cancerous cells): 6.6 µM; selectivity ratio at 72 h ([1]; MDA-MB-231 LM2 cells against non-cancerous MCF-10A cells, vs MCF-10A): 2.54; selectivity ratio at 72 h ([1]; MDA-MB-231 cells against non-cancerous MCF-10A cells, CC50 of non-cancerous MCF-10A / CC50 of MDA-MB-231): > 3; selectivity ratio at 72 h ([1]; MDA-MB-468 cells against non-cancerous MCF-10A cells, vs MCF-10A): 3.88; selectivity ratio at 72 h ([1]; T47D cells (against non-cancerous cells, line not specified)): < 1; selectivity ratio at 72 h ([1]; HCC-70): < 1; selectivity ratio at 72 h ([1]; Jurkat): 3.3; selectivity ratio at 72 h ([1]; Ramos): 3; selectivity ratio at 72 h ([1]; lung cancer line): < 2; selectivity ratio at 72 h ([1]; melanoma cell line): 3.2; selectivity ratio at 72 h ([1]; pancreatic cancer line): < 2; selectivity ratio at 72 h ([1]; two of the three ovarian cancer lines): 3.9; selective cytotoxicity index (SCI) (MDA-MB-231 cells; CC50 of non-cancerous MCF-10A / CC50 of MDA-MB-231): 4.13; CC50 (MDA-MB-231 cells; Homo sapiens, MDA-MB-231, 72 h, DNS assay): 1.6 µM; most recent CBC and CMP results ([2]; Case 1): within normal reference ranges; study-drug related adverse events ([2]; Case 1, hilar cholangiocarcinoma): no reports of any study-drug related adverse events; survival status ([2]; Case 1, June 2019, start 20 Dec. 2018, expected survival 2-4 weeks): still alive; study-drug related adverse events ([2]; Case 2, lung cancer stage IV): no reports of study-drug related adverse events; survival status ([2]; Case 2, start 22 Jan. 2019): passed away on 22 Feb. 2019; study-drug related adverse events ([2]; Case 3, ovarian cancer stage IV): no reports of study-drug related adverse events; survival status ([2]; Case 3, start 15 Jan. 2019): passed away on 29 Jan. 2019; survival status ([2]; Case 4, breast cancer stage IV, start 20 Jan. 2019): passed away on 15 Feb. 2019; most recent CBC and CMP results ([2]; Case 5): within normal reference ranges; study-drug related adverse events ([2]; Case 5, small cell lung cancer stage IV, cleared within a week): irritation on the skin during the first week of treatment; survival status ([2]; Case 5, June 2019, start 29 Jan. 2019): still alive; maximum tolerated dose ([2]; any patient, up to 500 or 600 mg daily): not reached; tolerability ([2]; five patients, 200-600 mg daily oral): well tolerated

— patent US12201626B2, “Bifunctional compositions for the treatment of cancer” (ARMACEUTICA, INC., priority 2018, dated 2025)
